The source of these data is US20230280220A1, “Benzimidazole Derivative Compounds and Uses Thereof” (Pfizer Inc., priority 2019, published 2023).

Sequence of ITK enzyme (ITK FL, N-Flag and C-His tagged) (Q08881 whole entry): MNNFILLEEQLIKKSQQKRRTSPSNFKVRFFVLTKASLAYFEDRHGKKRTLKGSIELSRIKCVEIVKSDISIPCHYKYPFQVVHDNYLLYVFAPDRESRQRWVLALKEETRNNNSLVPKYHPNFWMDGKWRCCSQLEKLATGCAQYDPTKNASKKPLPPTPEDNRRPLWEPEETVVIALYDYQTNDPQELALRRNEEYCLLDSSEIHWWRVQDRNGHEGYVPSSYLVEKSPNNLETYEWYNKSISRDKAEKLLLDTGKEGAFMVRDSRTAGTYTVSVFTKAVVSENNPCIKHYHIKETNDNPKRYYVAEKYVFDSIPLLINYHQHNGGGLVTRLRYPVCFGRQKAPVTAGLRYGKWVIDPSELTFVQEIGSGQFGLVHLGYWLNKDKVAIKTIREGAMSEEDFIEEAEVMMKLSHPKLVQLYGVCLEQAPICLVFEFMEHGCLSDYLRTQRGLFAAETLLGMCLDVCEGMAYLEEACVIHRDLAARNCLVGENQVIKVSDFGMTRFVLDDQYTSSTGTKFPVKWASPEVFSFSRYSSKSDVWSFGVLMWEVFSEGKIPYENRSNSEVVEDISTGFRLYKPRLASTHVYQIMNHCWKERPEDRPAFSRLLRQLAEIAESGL

In the test the target is ITK enzyme (ITK FL, N-Flag and C-His tagged) (Homo sapiens (Human), UniProt Q08881). Kind of test: ITK enzyme assay (IL-2-inducible T-cell kinase activity). The class given is biochemical. The note with it: geometric mean of count n. As to the method:
IL-2-Inducible T-Cell Kinase (ITK) Activity, IC50 (nM)
ITK activity was determined by measuring the effect of a test compound in an ITK enzyme assay.
1.0 M HEPES Buffer pH 7.5 solution was prepared as follows: 238.3 g HEPES free acid (Sigma) and 800 mL of water were combined, and the mixture was stirred until complete dissolution. The pH was adjusted to 7.5 via titration with 5N NaOH and the volume adjusted to 1000 mL. The solution was filtered and sterilized.
ITK assay buffer was prepared as follows: 50 mL of HPLC-grade water was treated with 2 mL of 1.0 M HEPES Buffer, 500 μL of 2% Gelatin (Sigma), 1.0 mL of aqueous MgCl2 solution (1.0 M), and 1.0 mL of aqueous glutathione solution (0.5 M), and the solution was mixed. The solution was brought to 99 mL in a graduated cylinder by addition of water and sterilized through a 0.2 μm filter. 0.1 mL of Brij-35™ Surfact-Amps™ Detergent Solution (10% w/v aqueous solution, ThermoFisher) and 1.0 mL of ATP (Teknova, 100 mM) were added and the solution was mixed.
The resulting solution was stored on ice. 30 Minutes prior to use, the enzyme solution was removed from ice and equilibrated to RT by incubation in a RT water bath.
Preparation of 4×ITK substrate solution was as follows: 50 mL of ITK assay buffer was treated with 100 μL of BTK peptide (China Peptide Company, 2 mM stock solution in DMSO). The tube was capped, mixed by gently inverting the tube, and then stored on ice. 30 Minutes prior to use, the substrate solution was removed from ice and equilibrated to RT by incubation in a RT water bath.
At the time of assay, 7.5 μL of the 1.33×ITK enzyme solution was added to plate wells containing 0.1 μL of varying concentrations of test compound in DMSO. The plate was incubated 30 min at RT. The plate wells were each treated with 2.5 uL of the 4×ITK substrate solution and the plate was sealed (TopSeal™, Perkin Elmer). The plate was spun at 1000 rpm for 30 sec and then incubated for 60 min at RT. The seal was removed, and each well was treated with 10 μL of Stop/Detect Buffer (20 mM HEPES pH 7.5, 0.01% gelatin, 1 nM LANCE PT66 (Perkin Elmer), 16.5 μg/ml Surelight APC (Perkin Elmer), 10 mM EDTA, 250 mM NaCl). The plate was again covered and was spun at 1000 rpm for 30 seconds. The plate was allowed to incubate overnight at RT and in a closed carrier to reduce dehydration. The seal was removed, and the fluorescence was read with a plate reader with an excitation wavelength of […] and an emission wavelength of 615 nm.
Turning to `Cc1cc2[nH]c(-c3n[nH]c4c3C[C@@H]3C[C@]3(C)C4)nc2cc1N(C)C(=O)CN1CCOC(C)(C)C1` [Example 29, 2-(2,2-Dimethylmorpholino)-N-methyl-N-(6-methyl-2-((4aS,5aR)-5a-methyl-1,4,4a,5,5a,6-hexahydrocyclopropa[f]indazol-3-yl)-1H-benzo[d]imidazol-5-yl)acetamide], it took 0.012 µM to reach half-maximal inhibition (IC50).
`Cc1cc2[nH]c(-c3n[nH]c4c3C[C@@H]3C[C@]3(C)C4)nc2cc1N(C)C(=O)CN1CCO[C@H](C)C1` [Example 30, N-Methyl-N-(6-methyl-2-((4aS,5aR)-5a-methyl-1,4,4a,5,5a,6-hexahydrocyclopropa[f]indazol-3-yl)-1H-benzo[d]imidazol-5-yl)-2-((R)-2-methylmorpholino)acetamide] yielded an IC50 of 0.015 µM.
`Cc1cc2[nH]c(-c3n[nH]c4c3C[C@@H]3C[C@]3(C)C4)nc2cc1N(C)C(=O)CN1CCO[C@@H](C)C1` [Example 31, N-Methyl-N-(6-methyl-2-((4aS,5aR)-5a-methyl-1,4,4a,5,5a,6-hexahydrocyclopropa[f]indazol-3-yl)-1H-benzo[d]imidazol-5-yl)-2-((S)-2-methylmorpholino)acetamide] came in with an IC50 of 0.013 µM.
The figure for `Cc1cc2[nH]c(-c3n[nH]c4c3C[C@@H]3C[C@]3(C)C4)nc2cc1N(C)C(=O)CN1C[C@@H](C)O[C@H](C)C1` [Example 32, 2-((2R,6R)-2,6-Dimethylmorpholino)-N-methyl-N-(6-methyl-2-((4aS,5aR)-5a-methyl-1,4,4a,5,5a,6-hexahydrocyclopropa[f]indazol-3-yl)-1H-benzo[d]imidazol-5-yl)acetamide] is 0.016 µM; for `Cc1cc2[nH]c(-c3n[nH]c4c3C[C@@H]3C[C@]3(C)C4)nc2cc1N(C)C(=O)CN1C[C@H](C)O[C@@H](C)C1` [Example 33, 2-((2S,6S)-2,6-Dimethylmorpholino)-N-methyl-N-(6-methyl-2-((4aS,5aR)-5a-methyl-1,4,4a,5,5a,6-hexahydrocyclopropa[f]indazol-3-yl)-1H-benzo[d]imidazol-5-yl)acetamide] it is 0.011 µM; for `Cc1cc2[nH]c(-c3n[nH]c4c3C[C@@H]3C[C@]3(C)C4)nc2cc1N(C)C(=O)CN1CCOCC1` [Example 34, N-Methyl-N-(6-methyl-2-((4aS,5aR)-5a-methyl-1,4,4a,5,5a,6-hexahydrocyclopropa[f]indazol-3-yl)-1H-benzo[d]imidazol-5-yl)-2-morpholinoacetamide] it is 0.01 µM.
The figure for `Cc1cc2[nH]c(-c3n[nH]c4c3C[C@@H]3C[C@]3(C)C4)nc2cc1N(C)C(=O)CC1CCOCC1` [Example 35, N-Methyl-N-(6-methyl-2-((4aS,5aR)-5a-methyl-1,4,4a,5,5a,6-hexahydrocyclopropa[f]indazol-3-yl)-1H-benzo[d]imidazol-5-yl)-2-(tetrahydro-2H-pyran-4-yl)acetamide] is 0.006 µM; for `C[C@@H](C(=O)N(C)c1cc(Br)c2[nH]c(-c3n[nH]c4c3C[C@@H]3C[C@]3(C)C4)nc2c1)N1CCOCC1` [Example 37, (S)—N-(7-bromo-2-((4aS,5aR)-5a-methyl-1,4,4a,5,5a,6-hexahydrocyclopropa[f]indazol-3-yl)-1H-benzo[d]imidazol-5-yl)-N-methyl-2-morpholinopropanamide] it is 0.009 µM.
Consider `C[C@@H](C(=O)N(C)c1cc(C#N)c2[nH]c(-c3n[nH]c4c3C[C@@H]3C[C@]3(C)C4)nc2c1)N1CCOCC1` [Example 38, (S)—N-(7-cyano-2-((4aS,5aR)-5a-methyl-1,4,4a,5,5a,6-hexahydrocyclopropa[f]indazol-3-yl)-1H-benzo[d]imidazol-5-yl)-N-methyl-2-morpholinopropanamide], for which 0.007 µM corresponded to half-maximal inhibition (IC50).
In turn, `COc1cc(N(C)C(=O)[C@H](C)N2CCOCC2)cc2nc(-c3n[nH]c4c3C[C@@H]3C[C@]3(C)C4)[nH]c12` [Example 40, (S)—N-(7-methoxy-2-((4aS,5aR)-5a-methyl-1,4,4a,5,5a,6-hexahydrocyclopropa[f]indazol-3-yl)-1H-benzo[d]imidazol-5-yl)-N-methyl-2-morpholinopropanamide] returned an IC50 of 0.019 µM.
`C[C@@H](C(=O)N(C)c1cc(C(F)(F)F)c2[nH]c(-c3n[nH]c4c3C[C@@H]3C[C@]3(C)C4)nc2c1)N1CCOCC1` [Example 41, (S)—N-methyl-N-(2-((4aS,5aR)-5a-methyl-1,4,4a,5,5a,6-hexahydrocyclopropa[f]indazol-3-yl)-7-(trifluoromethyl)-1H-benzo[d]imidazol-5-yl)-2-morpholinopropanamide] had an IC50 of 0.034 µM.
Molecule `COCc1cc(N(C)C(=O)[C@H](C)N2CCOCC2)cc2nc(-c3n[nH]c4c3C[C@@H]3C[C@]3(C)C4)[nH]c12` [Example 42, (S)—N-(7-(methoxymethyl)-2-((4aS,5aR)-5a-methyl-1,4,4a,5,5a,6-hexahydrocyclopropa[f]indazol-3-yl)-1H-benzo[d]imidazol-5-yl)-N-methyl-2-morpholinopropanamide] came in with an IC50 of 0.038 µM.
`C[C@@H](C(=O)N(C)c1cc(Cl)c2[nH]c(-c3n[nH]c4c3C[C@@H]3C[C@]3(C)C4)nc2c1)N1CCOCC1` [Example 43, (S)—N-(7-chloro-2-((4aS,5aR)-5a-methyl-1,4,4a,5,5a,6-hexahydrocyclopropa[f]indazol-3-yl)-1H-benzo[d]imidazol-5-yl)-N-methyl-2-morpholinopropanamide]: the IC50 was 0.016 µM.
Turning to `CCc1cc(N(C)C(=O)[C@H](C)N2CCOCC2)cc2nc(-c3n[nH]c4c3C[C@@H]3C[C@]3(C)C4)[nH]c12` [Example 44, (S)—N-(7-ethyl-2-((4aS,5aR)-5a-methyl-1,4,4a,5,5a,6-hexahydrocyclopropa[f]indazol-3-yl)-1H-benzo[d]imidazol-5-yl)-N-methyl-2-morpholinopropanamide], the IC50 turned out to be 0.028 µM.
`C[C@@H](C(=O)N(C)c1cc(CO)c2[nH]c(-c3n[nH]c4c3C[C@@H]3C[C@]3(C)C4)nc2c1)N1CCOCC1` [Example 45, (S)—N-(7-(hydroxymethyl)-2-((4aS,5aR)-5a-methyl-1,4,4a,5,5a,6-hexahydrocyclopropa[f]indazol-3-yl)-1H-benzo[d]imidazol-5-yl)-N-methyl-2-morpholinopropanamide] had an IC50 of 0.017 µM.
`Cc1c(F)c(N(C)C(=O)[C@H](C)N2CCOCC2)cc2nc(-c3n[nH]c4c3C[C@@H]3C[C@]3(C)C4)[nH]c12` [Example 47, (S)—N-(6-fluoro-7-methyl-2-((4aS,5aR)-5a-methyl-1,4,4a,5,5a,6-hexahydrocyclopropa[f]indazol-3-yl)-1H-benzo[d]imidazol-5-yl)-N-methyl-2-morpholinopropanamide] yielded an IC50 of 0.029 µM.
Molecule `C[C@@H](C(=O)N(C)c1cc(C(F)F)c2[nH]c(-c3n[nH]c4c3C[C@@H]3C[C@]3(C)C4)nc2c1)N1CCOCC1` [Example 48, (S)—N-(7-(difluoromethyl)-2-((4aS,5aR)-5a-methyl-1,4,4a,5,5a,6-hexahydrocyclopropa[f]indazol-3-yl)-1H-benzo[d]imidazol-5-yl)-N-methyl-2-morpholinopropanamide] registered an IC50 of 0.017 µM.
With `COCCOc1cc2[nH]c(-c3n[nH]c4c3C[C@@H]3C[C@]3(C)C4)nc2cc1N(C)C(=O)[C@H](C)N1CCOCC1` [Example 49, (S)—N-(6-(2-methoxyethoxy)-2-((4aS,5aR)-5a-methyl-1,4,4a,5,5a,6-hexahydrocyclopropa[f]indazol-3-yl)-1H-benzo[d]imidazol-5-yl)-N-methyl-2-morpholinopropanamide], the IC50 worked out at 0.012 µM.
Regarding `Cc1cc(N(C)C(=O)[C@H](C)N2CCOCC2)cc2nc(-c3n[nH]c4c3C[C@@H]3C[C@]3(C)C4)[nH]c12` [Example 50, (S)—N-methyl-N-(7-methyl-2-((4aS,5aR)-5a-methyl-1,4,4a,5,5a,6-hexahydrocyclopropa[f]indazol-3-yl)-1H-benzo[d]imidazol-5-yl)-2-morpholinopropanamide], the IC50 was 0.016 µM.
For the molecule `Cc1cc(N(C)C(=O)[C@H](C)N2CCOCC2)cc2nc(-c3n[nH]c4c3C[C@@H]3C(F)(F)[C@]3(C)C4)[nH]c12` [Example 51, (S)—N-(2-((4aS,5aR)-5,5-difluoro-5a-methyl-1,4,4a,5,5a,6-hexahydrocyclopropa[f]indazol-3-yl)-7-methyl-1H-benzo[d]imidazol-5-yl)-N-methyl-2-morpholinopropanamide], the IC50 came to 0.002 µM.
